This note sets out measurements from patent publication US20120094995A1, “2-AZA-BICYCLO[2.2.1]HEPTANE COMPOUNDS AND USES THEREOF” (ASTRAZENECA AB, priority 2009, published 2012).

Bounds are passed on as bounds.

The target of one assay is T1, human GlyT1b (Homo sapiens, UniProt P48067).
T1 construct: expressed in transfected cells
T1 sequence (P48067 1-652 isoform P48067-3): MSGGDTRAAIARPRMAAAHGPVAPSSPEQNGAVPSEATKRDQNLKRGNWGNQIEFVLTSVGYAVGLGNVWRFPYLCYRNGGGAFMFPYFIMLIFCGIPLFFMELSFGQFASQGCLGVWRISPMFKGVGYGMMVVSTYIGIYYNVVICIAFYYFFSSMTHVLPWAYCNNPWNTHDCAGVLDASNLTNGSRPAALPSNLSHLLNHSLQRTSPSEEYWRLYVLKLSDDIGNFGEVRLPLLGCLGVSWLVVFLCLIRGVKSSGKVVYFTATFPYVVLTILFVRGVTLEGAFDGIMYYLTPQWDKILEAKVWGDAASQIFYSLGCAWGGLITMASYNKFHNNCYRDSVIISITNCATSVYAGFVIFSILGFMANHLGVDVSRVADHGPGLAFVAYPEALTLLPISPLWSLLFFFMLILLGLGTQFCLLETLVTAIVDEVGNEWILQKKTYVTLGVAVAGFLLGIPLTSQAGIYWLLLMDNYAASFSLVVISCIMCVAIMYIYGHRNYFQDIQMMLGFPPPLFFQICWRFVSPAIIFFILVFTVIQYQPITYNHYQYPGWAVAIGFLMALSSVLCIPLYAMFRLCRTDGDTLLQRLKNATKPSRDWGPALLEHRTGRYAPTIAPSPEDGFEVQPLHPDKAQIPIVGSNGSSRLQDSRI
The assay can be described thus: [3H] Glycine Uptake Assay (SPA) in recombinant hGlyT1b-CHO cells. Type of assay: cell-based. As to conditions: Table 1. How it is done: A. [3H] Glycine Uptake Assay
Preparation of recombinant human GlyT1b-CHO cells (hGlyT1b-CHO). The human GlyT1b CDS (GC002087, NM_006934) was cloned downstream of a CMV promoter in a bicistronic expression vector containing a hygromycin B resistance gene. CHO-K1 cells (ATCC) were transfected with the recombinant vector containing GlyT1b using Lipofectamine 2000 (Invitrogen) and cultured in Ham's/F12 media supplemented with 10% fetal bovine serum, 2 mM L-glutamine at 37° C., 5% CO2, 90% humidity. Twenty-four hours after transfection, cells were diluted and switched to media containing 0.5 mg/ml hygromycin B. Antibiotic resistant cells were obtained after 21 days of culture in the presence of hygromycin B. Clonal stable cell lines were isolated by FACS single cell deposition into 96-well plates.
Cells used were Recombinant hGlyT1b/CHO. These cells were cultured in cell culture medium (Ham's/F12 (Modified) (Mediatech, 10-080-CM), containing 10% FBS, 2 mM L-glutamine (Invitrogen 25030-149) and 0.5 mg/mL hygromycin B (Invitrogen, 10687-010)) in 175 cm^2 flasks until near confluence before use in the assay.
Cell medium in a cell culture flask containing near confluent cells was removed and 5 mL of cell stripper was added to submerge all cells on the surface of the culture flask. Cell stripper was removed immediately and the flask incubated in a 37° C. incubator for ˜5 min. Cells were shaken loose and suspended in 5 mL of PBS. After splitting cells to initiate a new flask(s), the cells remaining were collected by centrifugation, counted, and resuspended in assay buffer to a density of ˜2 million/mL. The cell suspension was kept at room temperature before use. The assays buffer was 10 mM HEPES, pH 7.4, containing 150 mM NaCl, 5 mM KCl, 1.5 mM CaCl2, 1.5 mM MgCl2, 0.45 mg/mL L-alanine (added fresh), and 1.8 mg/mL D-glucose (added fresh).
WGA PTV beads were suspended in assay buffer (2 mg/ml) containing 60 nM [^3H]Glycine (PerkinElmer (NET-004, [2-^3H]Glycine, 53.3 Ci/mmol, 1 mCi/mL)) and 20 μM unlabeled glycine and the suspension was kept at room temperature before assay.
To the wells of an OptiPlate, 2 μl DMSO containing a test compound was spotted. This was followed by addition of 98 μl of cell suspension (˜1 million/ml final). After incubating cells with compound for ˜15 min, 100 μl of the SPA (200 μg/well final) and isotope mixture (30 nM isotope with 10 μM cold glycine, final) was added to initiate the glycine uptake. At 2 h, the plate was read on a TopCount to quantify SPA counts.
With `CN1C2CCC1(C(NC(=O)c1cccc(Cl)c1Cl)c1ccccc1)CC2` (single isomer, unassigned) [Example 13, (R*)-2,3-dichloro-N-((7-methyl-7-azabicyclo[2.2.1]heptan-1-yl)(phenyl)methyl)benzamide], the IC50 is 72 nM.
Same read-out and setting: under `COCCN1C2CCC1(C(NC(=O)c1c(C)cccc1C)c1ccncc1)CC2` (single isomer, unassigned) [Example 6, (R*)—N-((7-(2-methoxyethyl)-7-azabicyclo[2.2.1]heptan-1-yl)(pyridin-4-yl)methyl)-2,6-dimethylbenzamide] stands 26 nM; under `Cc1cccc(F)c1C(=O)NC(c1ccccc1)C12CCC(CC1)N2C` (single isomer, unassigned) [Example 7, 2-fluoro-6-methyl-N-((7-methyl-7-azabicyclo[2.2.1]heptan-1-yl)(phenyl)methyl)benzamide], 62 nM; under `Cc1cccc(C)c1C(=O)NC(c1cccc(Br)c1)C12CCC(CC1)N2C` (stereo not drawn) [Example 8, N-((3-bromophenyl)(7-methyl-7-azabicyclo[2.2.1]heptan-1-yl)methyl)-2,6-dimethylbenzamide], 3 nM.
Still for that read-out and setting: under `Cc1ccc(C(NC(=O)c2c(C)cccc2C)C23CCC(CC2)N3C)o1` (stereo not drawn) [Example 9, 2,6-dimethyl-N-((7-methyl-7-azabicyclo[2.2.1]heptan-1-yl)(5-methylfuran-2-yl)methyl)benzamide] stands 98 nM; under `Cc1c(C(=O)NC(c2ccccc2)C23CCC(CC2)N3C)cccc1C(F)(F)F` (stereo not drawn) [Example 16, 2-methyl-N-((7-methyl-7-azabicyclo[2.2.1]heptan-1-yl)(phenyl)methyl)-3-(trifluoromethyl)benzamide], 18.6 nM.
`CN1C2CCC1(C(NC(=O)c1cccc(Cl)c1Cl)c1ccccc1)CC2` (stereo not drawn) [Example 12, 2,3-dichloro-N-((7-methyl-7-azabicyclo[2.2.1]heptan-1-yl)(phenyl)methyl)benzamide]: the IC50 stood at 33.6 nM.

Staying with this assay, now noted: Table 2, unit from table title.
`COCCN1C2CCC1([C@H](NC(=O)c1ccc(F)cc1C)c1ccccc1)CC2` [Example 96]: the IC50 stood at 167 nM.
Same read-out and setting: for `Cc1cccc(C)c1C(=O)NC(c1ccc(C#N)cc1)C12CCC(CC1)N2C` (stereo not drawn) [Example 93] the value was 226 nM.
Still for that read-out and setting: under `CC(=O)Nc1cccc(C(NC(=O)c2c(C)cccc2C)C23CCC(CC2)N3C)c1` (stereo not drawn) [Example 102] stands 127 nM.
On to `Cc1c(F)cccc1C(=O)NC(c1ccccc1)C12CCC(CC1)N2C` (single isomer, unassigned) [Example 63], for which the IC50 is 76 nM.
Same read-out and setting: under `Cc1cccc(C)c1C(=O)N[C@H](c1ccccc1)C12CCC(CC1)N2CC(C)C` [Example 26] stands 21 nM; under `COCCN1C2CCC1([C@H](NC(=O)c1ccccc1C)c1ccccc1)CC2` [Example 92], 202 nM.
Turning to `Cc1cccc(C)c1C(=O)NC(c1ccc(Br)cc1)C12CCC(CC1)N2` (stereo not drawn) [Example 89], the IC50 came to 68 nM.
The same measure, in the same setting: under `Cc1cccc(C)c1C(=O)NC(c1ccccc1)C12CCC(CC1)N2CC(C)C` (stereo not drawn) [Example 22] stands 13 nM; under `Cc1cccc(C)c1C(=O)N[C@H](c1ccccc1)C12CCC(CC1)N2CC1CCC1` [Example 29], 9 nM.
The same measure, in the same setting: under `Cc1ccc(C(NC(=O)c2c(C)cccc2C)C23CCC(CC2)N3C)cn1` (single isomer, unassigned) [Example 77] stands 71 nM; under `Cc1cccc(C)c1C(=O)N[C@H](c1ccccc1)C12CCC(CC1)N2CCN1CCCC1` [Example 69], 51 nM.
Same read-out and setting: for `CSc1ncccc1C(=O)NC(c1ccccc1)C12CCC(CC1)N2C1CCC1` (stereo not drawn) [Example 44] the value was 243 nM; for `Cc1cccc(C)c1C(=O)NC(c1cccc(C#N)c1)C12CCC(CC1)N2C` (stereo not drawn) [Example 79], 87 nM.
As to `CCN1C2CCC1(C(NC(=O)c1c(Cl)cncc1Cl)c1ccccc1)CC2` (stereo not drawn) [Example 50], the IC50 was determined as 237 nM.
Consider `Cc1cccc(C)c1C(=O)NC(c1cccc(F)c1)C12CCC(CC1)N2C` (single isomer, unassigned) [Example 46], for which the IC50 came out at 2 nM.
Still for that read-out and setting: under `Cc1cc(C(NC(=O)c2c(C)cccc2C)C23CCC(CC2)N3)ccn1` (stereo not drawn) [Example 83] stands 136 nM; under `COCCN1C2CCC1([C@H](NC(=O)c1c(C)cccc1C)c1ccccc1)CC2` [Example 24], 22 nM; under `Cc1cccc(C)c1C(=O)N[C@H](c1ccccc1)C12CCC(CC1)N2CCO` [Example 34], less than 1.28 nM.
On to `Cc1cccc(C)c1C(=O)N[C@H](c1ccccc1)C12CCC(CC1)N2CCN` [Example 40], for which the IC50 amounted to 13 nM.
The same measure, in the same setting: under `CCCCN1C2CCC1([C@H](NC(=O)c1c(C)cccc1C)c1ccccc1)CC2` [Example 27] stands 11 nM.
`Cc1ccc(C(NC(=O)c2c(C)cccc2C)C23CCC(CC2)N3C)o1` (single isomer, unassigned) [Example 91]: the IC50 amounted to 344 nM.
Same read-out and setting: for `Cc1cccc(C)c1C(=O)NC(c1ccncc1)C12CCC(CC1)N2C` (stereo not drawn) [Example 37] the value was 6 nM; for `Cc1cccc(C)c1C(=O)NC(c1cccc(C(=O)N(C)C)c1)C12CCC(CC1)N2C` (stereo not drawn) [Example 88], 57 nM.
The same measure, in the same setting: under `CSc1ncccc1C(=O)NC(c1ccccc1)C12CCC(CC1)N2C(C)C` (single isomer, unassigned) [Example 53] stands 24 nM.
Same read-out and setting: under `CCCCc1cccc(C(NC(=O)c2c(C)cccc2C)C23CCC(CC2)N3C)c1` (stereo not drawn) [Example 103] stands 119 nM; under `Cc1ccc(C(NC(=O)c2c(C)cccc2C)C23CCC(CC2)N3C)cn1` (stereo not drawn) [Example 68], 129 nM; under `Cc1cccc(C)c1C(=O)NC(c1ccc(Br)cc1)C12CCC(CC1)N2C` (stereo not drawn) [Example 90], 4 nM.
For `Cc1cccc(C)c1C(=O)NC(c1ccc(N2CCOCC2)cc1)C12CCC(CC1)N2C` (stereo not drawn) [Example 97], the IC50 was determined as 73 nM.
Still for that read-out and setting: under `CCN1C2CCC1(C(NC(=O)c1cccnc1SC)c1ccccc1)CC2` (single isomer, unassigned) [Example 73] stands 46 nM; under `COCCCN1C2CCC1([C@H](NC(=O)c1c(C)cccc1C)c1ccccc1)CC2` [Example 28], 12 nM; under `Cc1cccc(C)c1C(=O)N[C@H](c1ccccc1)C12CCC(CC1)N2Cc1cnn(C)c1` [Example 61], 12 nM.
Consider `Cc1cccc(C)c1C(=O)NC(c1cccc(F)c1)C12CCC(CC1)N2C` (single isomer, unassigned) [Example 45], for which the IC50 was 175 nM.
Regarding `Cc1cccc(C)c1C(=O)NC(c1cccnc1)C12CCC(CC1)N2C` (stereo not drawn) [Example 65], the IC50 was found to be 31 nM.
Still for that read-out and setting: under `Cc1cccc(C)c1C(=O)N[C@H](c1ccccc1)C12CCC(CC1)N2CC1CCCO1` (stereo partly drawn) [Example 56] stands 4 nM; under `Cc1cccc(C)c1C(=O)NC(c1cccc(F)c1)C12CCC(CC1)N2` (single isomer, unassigned) [Example 76], 297 nM.
On the same count and under the same terms, under `Cc1cccc(C)c1C(=O)NC(c1cccnc1)C12CCC(CC1)N2` (stereo not drawn) [Example 60] stands 30 nM; under `Cc1cccc(C)c1C(=O)N[C@H](c1ccccc1)C12CCC(CC1)N2CCC(F)(F)F` [Example 58], 3 nM.
Still for that read-out and setting: under `Cc1cccc(C)c1C(=O)N[C@H](c1cncnc1)C12CCC(CC1)N2C` [Example 72] stands 148 nM.
